Test results published in paper PMC10307035, “Antiviral activity of singlet oxygen-photogenerating perylene compounds against SARS-CoV-2: Interaction with the viral envelope and photodynamic virion inactivation” (Virus Research, 2023).

Tests used:
[1] = Spectrofluorometric analysis of interaction with liposomes; assay type: physicochemical; conditions: 10 µM in PBS
[2] = system: feline infectious peritonitis virus (FIPV); assay type: cell-based, feline coronavirus (FCoV); conditions: 0–10 µM
[3] = ROS generation rate / quantum yield, DPBF bleaching in methanol; assay type: physicochemical; conditions: in methanol, DPBF trap, 450–470 nm illumination, riboflavin as reference
Source text: The ROS generation rate was estimated using the spectrophotometric method, based on the absorption changes of 1,3-diphenylisobenzofuran (DPBF, Sigma Aldrich, Germany) in methanol solution. Irreversible oxidation of DPBF by singlet oxygen results in peroxide formation, and DPBF bleaching. When light of 400–450 nm was used as actinic, DPBF bleaching occurred without any photosensitizer (PS) in solution. Therefore, to study photosensitized ROS generation, we used a white MCWHLP1 LED (Thorlabs, USA) with filters to limit the radiation to the 450–470 nm range (5.5 mW/cm^2).
Spectrophotometric measurements were performed in a Qpod 2e (Quantum Northwest, USA) thermostated cuvette holder at 25 °C with magnetic stirring (500 rpm). Absorption spectra were recorded using a MayaPro spectrophotometer (Ocean Optics, USA) and a stabilized white light source with a SLS201L tungsten lamp (Thorlabs, USA). Illumination was uniform over the entire volume of the cuvette, to prevent artifacts associated with the diffusion of non-reacted components into the illuminated volume of the cuvette. In this case, the rate of irreversible bleaching of DPBF (412 nm) was the same under both continuous and pulsed irradiation with equal total irradiation time. Illumination was performed in a pulsed mode (Fig. S5A), with 1 s of illumination followed by 5 s of dark adaptation, during which the absorption spectrum of the PS-DPBF solution was recorded. Data processing was performed as previously described ([Gvozdev et al., 2020]).

[4] = ROS generation measurement with DMA trap in DMSO; assay type: physicochemical
Description: ROS generation was also estimated using 9,10-dimethylanthracene (DMA), another specific fluorescent singlet oxygen trap, which forms nonfluorescent 9,10-dimethylanthracene endoperoxide after ROS-mediated DMA oxidation. Compounds (0, 0.1, 1, and 10 µM) in DMSO were mixed with DMA (0.5 µM), and these solutions were irradiated for 10 min at room temperature (RT) with light-emitting diodes (LED, 465–480 nm) having approximate power density of 30 mW/cm^2 (device description in Fig. S7). DMA fluorescence intensity was measured at ex/em wavelengths of 370/432 nm in the presence or absence of α-tocopherol (3 µg/mL) as an antioxidant. Singlet oxygen generation was accompanied by a decreased fluorescence signal of the DMA probe ([Zeng et al., 2020]).

SARS-CoV-2 = experiment: Photodynamic inactivation of SARS-CoV-2 virions; assay type: cell-based
Description: Virus in DMEM (titer of 10^5 PFU/mL) was mixed with the compounds (0–10 µM) in a microtiter plate, in triplicate, and irradiated for 10 min at RT with LEDs (465–480 nm) having an approximate power density of 30 mW/cm^2 (device description in supplement). As a negative control, virus was incubated for 10 min in the dark at RT. Subsequently, both irradiated and non-irradiated virus samples were incubated in the dark at 37 °C for 60 min. All manipulation with the samples before and after this incubation, i.e., mixing the compound with the virus, pipetting into a microtiter plate, etc., were performed in daylight. Viral titers were determined by plaque assays (performed also in daylight) and expressed as PFU/mL, as previously described ([Stefanik et al., 2021]). To eliminate the influence of daylight on compound activity, the whole experiment, including all manipulation with samples, was performed in a dark room under red light. The virus sample was mixed with the indicated compounds at concentrations from 0 to 10 μM or 100 μM, incubated for 60 min at 37 °C and virus viability was evaluated using a plaque assay (Fig. 9A).

CC(C)(C)C(=O)OCn1c(=O)c(C#Cc2ccc3c4cccc5cccc(c6cccc2c63)c54)cn(CC(=O)N(CCO)CCO)c1=O [Compound 13]
penetration into liposomal membranes (in words) ([1]; EPC/Chol 70/30 mol% liposomes): penetrated the liposomal membranes very quickly and efficiently | steady-state fluorescence signal after mixing with liposomes ([1]; at 520 nm, after 1400 s): about 10^5 CPS | replication of FIPV in CRFK cells [2]: potently suppressed the replication | φROS (ROS generation quantum yield) [3]: 19.1 ± 0.2% | ROS generation, DMA trap, under blue light ([4]; 465–480 nm, 30 mW/cm^2, 10 min): significant bleaching | ROS generation, DMA trap, in the dark or with α-tocopherol ([4]; 10 min, dark or α-tocopherol (3 µg/mL)): no/limited bleaching | antiviral effect under red light only (SARS-CoV-2; 100 µM, dark room, red light, 60 min at 37 °C): no antiviral effect | antiviral activity after blue light irradiation of virus-compound mixture (SARS-CoV-2; 465–480 nm, 30 mW/cm^2, 10 min, then 60 min at 37 °C in the dark, plaque assay): low-nanomolar | antiviral activity under red light only (SARS-CoV-2; up to 10 µM, dark room, red light, 60 min at 37 °C): completely disappeared
